From patent US6774139B1, “Dual function microbicides” (Parker Hughes Institute, priority 2000, dated 2004)
Where two headings read alike, the source gives them in different places.

Tests used:
[1] = test system: HIV-1 strain HTLVIIIB; experiment: p24 antigen production in HIV-1 infected PBMCs; type: cell-based
Method: The HTLVIIIB strain of HIV-1 was propagated in CCRF-CEM cells and the virus stocks obtained from cell-free supernatants of infected cells were titered using MT-2 cells. Cell-free supernatants were harvested and frozen in 1 ml aliquots at −70° C.
Stock solutions (10 mM) of thiourea compounds were prepared in dimethylsulfoxide (DMSO). Cells were cultured for 7 days in 96-well microtiter plates (100 μl/well; 2×10^6 cells/ml, triplicate wells) in the presence and absence of various concentrations (0.001 μM to 100 μM) of the thioureas. Cells from non-infected controls were handled in the same way except the virus was omitted from the preparation. Aliquots of culture supernatants were removed from the wells on the 7th day after infection for p24 antigen as previously described. The p24 enzyme immunoassay was the unmodified kinetic assay available commercially (Coulter Corporation/Immunotech, Inc., Westbrook, Me.). The assay uses a murine monoclonal antibody (mAb) to the HIV core protein coated onto microwell strips to which the antigen present in the test culture supernatant sample binds. The plates were read on a ELISA reader (Molecular Devices, Sunnyvale, Calif.) at 650 nm and p24 levels, expressed as ng/ml, were calculated against known standards supplied by Coulter/Imrunotech, Inc. Percent viral inhibition was calculated by comparing the p24 values for the test substance-treated infected cells with the p24 values for untreated infected cells (i.e., virus controls). […]

[2] = target: T1, purified recombinant HIV-1 RT (Human immunodeficiency virus type 1 group M subtype B, UniProt P03366); experiment: cell-free Quan-T-RT RT inhibition assay (scintillation proximity); type: biochemical; conditions: for IC50: purified recombinant HIV-1 RT, cell-free
T1 construct: purified recombinant HIV-1 RT
Method: Each of the thirty one thiourea compounds was tested for RT inhibitory activity against purified recombinant HIV-1 RT using the cell-free Quan-T-RT system (Amersham Corp., Arlington Heights, Ill.), which utilizes the scintillation proximity assay principle.

[3] = test system: human sperm; experiment: sperm immobilizing activity (SIA) by CASA; type: cell-based; conditions: for EC50: read-out: EC50 [SIA]
Method: To evaluate the effect of each of the 31 thiourea compounds on human sperm motility and kinematics, highly motile fractions of sperm were prepared from donor semen (n=8) by discontinuous (90-45%) gradient centrifugation using Enhance Plus medium (Conception Technologies, San Diego, Calif.) and the “swim-up” method. The swim-up method was used after density gradient centrifugation, washing, and resuspension of sperm in BWW-3% BSA. Pooled swim-up fraction was washed once prior to spermicidal assay.
All donor semen specimens were obtained after informed consent and in compliance with the guidelines of the Parker Hughes Institute Institutional Review Board. […] The stock solutions of thioureas were prepared in DMSO (100 mM) and diluted in assay medium to yield the desired concentrations (up to 1000 μM). Corresponding volume of DMSO (either 0.5% or 1%) was added to control tubes. After 3 hours of incubation at 37° C., the percentage of motile sperm was evaluated by CASA [53, 62-64]. The percent motilities were compared with sham-treated control suspensions of motile sperm.
For CASA, 5-μl of each sperm suspension was loaded into a 20-μm Microcell slide (Conception Technologies) in a counting chamber at 37° C. At least 5-8 fields per slide were scanned for analysis using a Hamilton Thome Integrated Visual Optical System (IVOS), version 10 instrument (Hamilton Thome Research Inc., Danvers, Mass.). Each field was recorded for 30 seconds. The computer calibrations were set at 30 frames at a frame rate of 30/second.
The sperm kinematics parameters that were determined included numbers of motile (MOT) and progressively (PRG) motile sperm; curvilinear velocity (VCL; a measure of the total distance traveled by a given sperm during the acquisition divided by the time elapsed); average path velocity (VAP; the spatially averaged path that eliminates the wobble of the sperm head), straight line velocity (VSL; the straight-line distance from beginning to end of track divided by time taken), beat cross frequency (BCF; frequency of sperm head crossing sperm average path), the amplitude of lateral head displacement (ALH; the mean width of sperm head oscillation), and the derivatives, straightness (STR=VSL/VAP×100) and linearity (LIN=VSL/VCL×100; departure of sperm track from a straight line). Data from each individual cell track were recorded and analyzed. At least 200 motile sperm were analyzed for each aliquot sampled.

[4] = partition coefficient n-octanol/water (Pa); type: physicochemical; conditions: UV absorption
Method: Partition of the test compounds between n-octanol and water as a measure of their lipophilicity was determined by taking the UV absorption of each compound in n-octanol, water-saturated n- octanol (1:1), and n-octanol-saturated water (1:1). The UV absorption maxima were determined by selecting a wavelength with the maximum absorption peak in the water-saturated octanol layer and the corresponding peak in the octanol-saturated water. Three absorption spectra were obtained for each compound. The partion coefficient (Pa) was calculated as the ratio of the compound concentration present in the lipid phase to the compound concentration present in the aqueous phase.

[5] = Human immunodeficiency virus 1, PBMC, HIV-1 HTLVIIIB infected human PBMC, p24 antigen on 7th day, read-out: IC50 [p24]
[6] = Human immunodeficiency virus 1, PBMC, HIV-1 HTLVIIIB infected human PBMC, values in nM, read-out: IC50[p24]
[7] = motile human sperm, 3 hours at 37° C., CASA
[8] = Human immunodeficiency virus 1, PBMC, read-out: IC50 [p24]

| Compound | IC50 [1, 5] [nM] | IC50 [1, 6] [nM] | IC50 ([2]; IC50 [rRT]) [nM] | EC50 [3, 7] [nM] | Pa, Partition coefficient [4] | further results |
| --- | --- | --- | --- | --- | --- | --- |
| S=C(NCCN1CCCCC1)Nc1ccc(Br)cn1 [HI 172] | < 1 | < 1 | 5800 | > 500000 | 8.91 |  |
| S=C(NCCN1CCCC1)Nc1ccc(Br)cn1 [HI 230] | 1000 |  | > 100000 | > 500000 | 7.91 |  |
| COc1ccc(CCNC(=S)Nc2ccc(Br)cn2)cc1OC [HI 232] |  |  | > 100000 | > 500000 | 22.7 |  |
| COc1ccc(OC)c(CCNC(=S)Nc2ccc(Br)cn2)c1 [HI 236] | < 1 | < 1 | 100 | > 500000 | 1.78 |  |
| COc1ccccc1CCNC(=S)Nc1ccc(Br)cn1 [HI 237] | 10 |  | 1000 | > 500000 | 3.79 |  |
| COc1cccc(CCNC(=S)Nc2ccc(Br)cn2)c1 [HI 239] | 3 | 1 to 10 | 400 | > 500000 | 1.07 |  |
| Fc1cccc(CCNC(=S)Nc2ccc(Br)cn2)c1 [HI 241] | < 1 | < 1 | 700 | > 500000 |  |  |
| Fc1ccc(CCNC(=S)Nc2ccc(Br)cn2)cc1 [HI 242] | 9 | 1 to 10 | 6400 | > 500000 | 10.7 |  |
| S=C(NCCc1ccc(Br)cc1)Nc1ccc(Br)cn1 [HI 243] | 70 |  | 900 | > 500000 | 4.16 |  |
| Cc1ccc(CCNC(=S)Nc2ccc(Br)cn2)cc1 [HI 244] | 30 |  | 700 | > 500000 | 1.49 |  |
| S=C(NCCc1cccc(Cl)c1)Nc1ccc(Br)cn1 [HI 254] | 10 |  | 3100 | > 500000 | 6.20 |  |
| S=C(NCCc1ccc(Cl)cc1)Nc1ccc(Br)cn1 [HI 255] | 1 | 1 to 10 | 400 to 6400 | 160000 | 2.23 |  |
| Oc1ccc(CCNC(=S)Nc2ccc(Br)cn2)cc1 [HI 256, N-[2-(4-hydroxyphenethyl)]-N′-[2-(5-bromopyridyl)]thiourea] |  |  |  | 233000 ± 68000 | 2.93 | IC50 [1, 8]: 3060 nM |
| S=C(NCCN1CCNCC1)Nc1ccc(Br)cn1 [HI 258] | 2 | 2 | > 100000 | > 500000 | 5.92 |  |
| S=C(NCCc1ccccc1)Nc1ccc(Br)cn1 [HI 275] | 4 | 4 | 1250 | 361000 ± 31000 | 3.50 |  |
| FC(F)(F)c1ccc(NC(=S)NCCc2ccccc2)nc1 [HI 308, N-[2-(phenethyl)]-N′-[2-(5-trifluoromethylpyridinyl)]-thiourea] |  |  | > 100000 | > 500000 |  | anti-HIV activity (in words) [2]: inactive |
| FC(F)(F)c1ccc(NC(=S)NCCc2ccccn2)nc1 [HI 309] |  |  | 13900 | > 500000 | 3.81 |  |
| COc1ccc(OC)c(CCNC(=S)Nc2ccc(C(F)(F)F)cn2)c1 [HI 310, N-[2-(5-dimethoxyphenethyl)]-N′-[2-(5-trifluoromethylpyridinyl)]-thiourea] |  |  |  | 276000 ± 22000 | 1.00 | IC50 ([1]; HIV-1 HTLVIIIB infected human PBMC, p24 antigen on 7th day, read-out: IC50 [p24]): 80 nM; IC50 ([2]; read-out: IC50 [rRT]): 2000 nM |
| Fc1ccccc1CCNC(=S)Nc1ccc(C(F)(F)F)cn1 [HI 311] | 90 |  | 600 | > 500000 | 5.13 |  |
| FC(F)(F)c1ccc(NC(=S)NCCN2CCCCC2)nc1 [HI 344] |  |  | > 100000 | 131000 | 10.27 |  |
| Fc1cccc(CCNC(=S)Nc2ccc(Br)cn2)c1 [HI 345] |  |  |  | > 500000 | 1.51 | IC50 ([2]; read-out: IC50 [rRT]): 700 nM |
| FC(F)(F)c1ccc(NC(=S)NCCC2=CCCCC2)nc1 [HI 347, N-[2-(5-trifluoromethylpyridinyl)]-N′-[2-(1-cyclohexenyl)ethyl]-thiourea] |  |  |  | 131000 ± 4000 | 11.5 | IC50 [1, 8]: 79 nM; anti-HIV activity, fold less active than halo functionalized derivatives ([1]; versus PHI-346 and PHI-445): 26 fold; effective 100% inhibitory concentration (EC100), sperm motility ([3]; FIG. 1, CASA): 0.25 mM; SIA, fold less active than halo functionalized derivatives ([3]; versus PHI-346 and PHI-445): two to three-fold less active |
| S=C(NCCc1cccs1)Nc1ccc(Br)cn1 [HI 443] |  |  | 5300 | > 500000 |  | IC50 [1, 8]: 30 nM |
| CC1(C)C2CCC(CNC(=S)Nc3ccc(Br)cn3)C1C2 (stereo not drawn) [HI 444] |  |  |  | > 500000 | 2.1 | anti-HIV activity (in words) [2]: loss of anti-HIV activity; IC50 ([2]; read-out: IC50 [rRT]): > 100000 nM |
| S=C(NCCC1=CCCCC1)Nc1ccccn1 [HI-541] | 10 |  | 5300 | > 500000 |  |  |
| S=C(NCCc1ccccn1)Nc1ccc(Br)cn1 [Trovirdine, reference compound] |  |  |  |  | 5.3 | IC50 [1, 8]: 7 nM; SIA / sperm motility (in words) [3]: lacked SIA; EC50 ([3]; Homo sapiens, Sperm, 3 h): > 500000 nM |
